What was measured:
TAC-2 cells = assay: Epithelial tube formation assay, TAC-2 cells in collagen gels; type: cell-based
Description: TAC-2 cells were suspended in three-dimensional collagen gels at 1×10^4 cells/ml in collagen and incubated in complete medium containing HGF and/or Grb2 inhibitors as indicated. After 3 days, the cultures were fixed with 2.5% glutaraldehyde in 0.1 M cacodylate buffer, and at least 3 randomly selected fields per experimental condition in each of 3 separate experiments were digitally recorded with brightfield microscopy. The total length of the cords in each individual colony present in each optical field was measured with IPLab. Cord length was considered as “0” in: a) colonies with a spheroidal shape, and b) slightly elongated structures in which the length to diameter ratio was less than 2. The mean values for each experimental condition were compared to controls using the Student's unpaired t-test. Results in FIG. 5 are described as mean total cord length (in μm) per field.

HMEC-1 cells = assay: HMEC-1 cell migration, modified Boyden chamber; type: cell-based, human; details: VEGF
Description: (§1) The migration assay of HUVE and HMEC-1 cells in modified Boyden chambers was adapted from previously described procedures (Murohara et al., Thromb. Vasc. Biol., 19: 1156-61 (1999), Malinda et al., FASEB J., 13: 53-62 (1999)). In brief, Biocoat Cell Environment control inserts (8 micron pore size; Becton Dickinson) were coated with 0.1% gelatin (Sigma) for at least 1 hour at 37° C. and air dried. Lower chambers contained 0.7 ml RPMI+0.1% BSA, to which 20 ng/ml HGF and/or 300 nM Grb2 inhibitors were added. Cells were pre-treated with the indicated concentrations of Grb2 inhibitors for 18-24 hours, trypsinized, washed twice in RPMI+0.1% BSA, added to upper chambers (5×10^4 cells/well) with or without inhibitors in a final volume of 0.5 ml, and incubated for 4 h at 37° C. Cells on the upper surface of each filter were removed with a cotton swab, while cells that had traversed to the bottom surface of the filter were fixed and stained using Diff-Quik (Dade Diagnostics) and counted using a 10× objective. Mean values from 4 randomly selected fields (1×1.4 mm) were calculated for each of triplicate wells per experimental condition. Shown in FIG. 6 is the ratio of growth factor-treated to control migrating cells designated on the y-axis as “Migration (Fold Increase)” or as the mean number of cells per optical field in FIGS. 8-11.

HMVE cells [1] = assay: HMVE cell migration, modified Boyden chamber; type: cell-based, human
Description: as §1

HMVE cells [2] = assay: HMVE cell proliferation; type: cell-based, human
Description: HUVE or HMVE cells were seeded per triplicate in type I collagen-coated 48-well plates (Biocoat) (3000 cells/well) in […] of complete EGM-Bullet Kit medium (BioWhittaker, Walkersville, Md.), allowed to attach for 4 hr and incubated overnight with or without the indicated concentrations of peptide 2. The cultures were rinsed twice in serum-free medium and incubated with EBM medium (BioWhittaker) supplemented with 50 μg/ml heparin, 50 μg/ml ascorbic acid and 10% FCS. After either 4 days (HUVE) or 5 days (HMVE), cells were harvested with trypsin/EDTA and counted with an hemocytometer. The mean number of cells per ml was calculated from 3 independent measures for each of triplicate wells per experimental condition and compared to controls using the Student's unpaired t-test. Results set forth in FIG. 12 are described as the ratio of growth factor-treated to control proliferating cells designated on the y-axis as “Proliferation (Fold Increase)”.

NIH 3T3 fibroblasts = assay: NIH 3T3 fibroblast migration, modified Boyden chamber; type: cell-based
Description: as §1
PDGF is implicated in different biological processes such vascular remodeling, wound healing and cancer (for reviews, see Bornfeldt et al., Ann N Y Acad. Sci., 766:416-30, 1995; Gendron, Surv. Ophthalmol., 44:184-5, 1999). Addition of 50 ng/ml PDGF-BB to NIH 3T3 fibroblasts incubated in a modified Boyden chamber results in a dramatic, 20-fold increase in cell migration. […] This observation opens a potential therapeutical use of the Grb2 inhibitor compounds in the treatment of diseases such as cancer, wound healing disorders, vascular complications of diabetes mellitus, vascular nephropathies, and diseases with occurrence of fibrosis.

PC3M cells [3] = assay: PC3M cell invasion across Matrigel-coated Transwell filters; type: cell-based, human; details: increasing concentrations, with or without HGF 40 ng/ml, 30 h
Description: After serum deprivation and pre-treatment for 16 hrs, PC3M cells were assayed in cell culture inserts (BD Biosciences), 8 micron-pore-size polyethylene terephthalate membrane with Falcon cell culture inserts (Becton Dickinson). Pre-treated cells were trypsinized and counted; a total of 1×10^5 cells in serum free medium (500 microliters) were added to the upper chamber, and 500 microliters of serum free media with the relative concentration of C90 and HGF were added to the lower chamber. […] Then the cells in the inside of the upper chamber were removed with a cotton swab and cell on the other side of the membrane were fixed and stained using Diff-Quick (Dade Diagnostics, Deerfield, Ill.). Photographs of […] random fields were taken and cells were counted by bright field microscopy using a 10× objective. Mean values from four randomly selected fields (1×1.4 mm) were calculated for each of triplicate wells per experimental condition.
FIG. 13B depicts bar graphs of PC3M cell invasion across Matrigel-coated Transwell filters in the presence (filled bars) or absence (unfilled bars) of HGF (40 ng/ml, 30 h).

PC3M-luc cells = assay: Subcutaneous tumor model (spontaneous metastasis), PC3M-luc xenograft, bioluminescence imaging; type: in vivo, SCID/beige mice; details: cells pre-treated 24 h with 1 micromolar
Description: PC3M-luc cells were pre-treated for 24 hrs with 1 micromolar C90, then trypsinized, washed in PBS and spun down at 650 rpm to be resuspended in HBSS at the appropriate cell density for injection (1×10^6 cells). Injection was boosted with 10 micromolar C-90. Cell where then injected in the right flank SCID/beige mice (Taconic Inc., Germantown, N.Y.). On indicated days, mice were injected with 150 mg/kg of D-luciferin (potassium salt, Xenogen Corp., Alameda, Calif.) and placed for imaging in the In vivo Imaging System (Xenogen) with total imaging time of 1 or 5 minutes. Total body bioluminescence was quantified by integrating the photonic flux (photons per second) through a region of interest drawn around each mouse.
Cells prepared for xenograft injections were pretreated with C-90 for 24 h. Cells were injected in to mice (5 per group) by either tail vein (B16-luc, induced metastasis model) or subcutaneously (PC3M-luc, spontaneous metastasis model). Imaging of the PC3M cell metastases in lungs ex vivo (FIG. 14A)) correlated with earlier scans of intact animals (data not shown). Units are proportional to photons emitted within a defined time interval (total flux).

PC3M cells [4] = assay: Growth rate and viability in culture of C-90 treated PC3M cells; type: cell-based, human; details: treated 24 h, three week study period
B16 mouse melanoma cells = assay: Growth rate and viability in culture of C-90 treated B16 cells; type: cell-based; details: same study period

NC(=O)C[C@H](NC(=O)C1(NC(=O)[C@H](Cc2ccc(C(C(=O)O)C(=O)O)cc2)NC(=O)C(=O)O)CCCCC1)C(=O)NCCCc1cccc2ccccc12 [peptide 2, (N-oxalyl-4-malonyl)-Phe-Ac6c-Asn-NH-(3-naphthalen-1-yl-propyl)]
HGF-induced elongation of epithelial tubes (cord length) (TAC-2 cells; HGF 20 ng/ml, 3 days): significantly (p<0.0001) abrogate | concentration at which a sub-maximal inhibitory effect is already observed (TAC-2 cells; HGF-induced tube elongation): 30 nM | VEGF-induced cell migration (HMEC-1 cells): significantly (p<0.001) reverted | VEGF-induced cell migration (HMVE cells [1]; VEGF): significantly (p<0.001) reverted | cell migration induced by HGF (HMVE cells [1]; peptide 300 nM, HGF 0-50 ng/ml): abolished | abolition of the effect of the optimal concentration of bFGF (HMVE cells [1]; peptide 300 nM, bFGF 5 ng/ml): 72% | biphasic stimulatory activity of bFGF on migration (HMVE cells [1]; peptide 300 nM, bFGF 0.2-50 ng/ml): significantly (p<0.001) inhibited | HMVE cell growth (HMVE cells [2]; peptide 30 nM, presence and absence of growth factors): basically resistant | HMVE cell growth (HMVE cells [2]; peptide 300 nM): highly significant (p<0.001) inhibition of cell growth | PDGF-BB-induced NIH 3T3 cell migration (NIH 3T3 fibroblasts; co-added with PDGF-BB 50 ng/ml): inhibits NIH 3T3 cell migration in a significant (p<0.001), dose-dependent manner | reduction in the mean number of cells per field (NIH 3T3 fibroblasts; peptide 30 nM, PDGF-BB 50 ng/ml): 60% | PC3M cell invasiveness in vitro (PC3M cells [3]): dose-dependent inhibition | primary tumor growth (mass, volume ex vivo) (PC3M-luc cells): did not affect primary tumor growth | metastatic rate (lung metastases ex vivo, total flux) relative to untreated control cells (PC3M-luc cells; injection boosted with 10 micromolar): significantly reduced the metastatic rate | growth rate and viability in culture (PC3M cells [4]): identical growth rate and viability as untreated cells | cell viability or growth rate in culture (B16 mouse melanoma cells): no differences in cell viability or growth rate
